Like-named read-outs stand apart in the source and are kept apart here.
Key:
[1] = test system: BE-M17 human neuroblastoma cells overexpressing A53T α-synuclein; experiment: Thioflavin S aggregation assay in rotenone-treated cells; type: cell-based
Excerpt: (§1) Therefore, to test the therapeutic potential of the compounds, two cell-based assays were utilized. In both assays, rotenone is used to induce mitochondrial oxidative stress and α-synuclein aggregation. The first assay utilizes the binding of the fluorescent dye thioflavin S to structures with high β-sheet content including α-synuclein fibrils. Therefore, quantitative assessment of the extent of thioflavin S-positive staining of fixed cells is used to test the ability of the compounds to decrease the amount of α-synuclein aggregates. In the second assay, cell viability is assessed using the XTT Cytotoxicity assay, which is dependent on intact, functional mitochondria in live cells. Thus, the XTT Cytotoxicity assay is used to test the ability of the compounds to ameliorate the mitochondrial toxicity and resulting loss of viability associated with the accumulation of α-synuclein aggregates. Phrased another way, the XTT Cytotoxicity assay is used to gauge the compounds neuroprotective efficacy. These studies are presented in the following examples.
(§2) BE-M17 human neuroblastoma cells stably transfected with A53T-mutant human α-synuclein were obtained. Cell culture reagents were obtained from Gibco/Invitrogen, and cells were grown in OPTIMEM supplemented with 10% FBS, Penicillin (100 units/mil)-Streptomycin (100 μg/ml) and 500 μg/ml G418 as previously described (Ostrerova-Golts et al., J. Neurosci., 20:6048-6054, 2000).
Thioflavin S is commonly used to detect amyloid-containing structures in situ, including in brain tissue (Vallet et al., Acta Neuropathol., 83:170-178, 1992), and cultured cells (Ostrerova-Golts et al., J. Neurosci., 20:6048-6054, 2000), whereas thioflavin T is often used as an in vitro reagent to analyze the aggregation of soluble amyloid proteins into fibrils enriched in β-pleated sheet structures (LeVine III, Prot. Sci., 2:404-410, 1993). Therefore, Thioflavin S histochemistry was used on cultured cells to detect aggregates containing a high degree of […] structures that formed in response to oxidative stress-inducing agents (in this case rotenone) as previously described, with minor modifications (Ostrerova-Golts et al., J. Neurosci, 20:6048-6054, 2000). Briefly, for these studies, cells were grown on Poly-D-Lysine coated glass slide chambers at approximately 3×10^4 cells/cm^2. After 24 hours, cells were treated with 500 nM, 1 μM or 5 μM rotenone (Sigma) or vehicle (0.05% DMSO) as indicated. Immediately after rotenone (or vehicle) addition, compounds were added at the indicated concentration, or cell culture media only (no compound) in the presence of rotenone was added. Identical treatments were repeated after 48 hours. After an additional 48 hours, cells were fixed for 25 minutes in 3% paraformaldehyde. After a PBS wash, the cells were incubated with 0.015% thioflavin S in 50% ethanol for 25 minutes, washed twice for four minutes in 50% ethanol and twice for five minutes in deionized water and then mounted using an aqueous-based mountant designed to protect against photobleaching. Aggregates that bind to thioflavin S were detected with a fluorescent microscope using a High Q FITC filter set (480 to 535 nm bandwidth) and a 20× objective lens unless otherwise indicated. Between 8 and 16 representative images per condition were selected, imaged and processed by an experimenter who was blinded to treatment conditions. To assess the amount of thioflavin S-positive aggregates, the total area per field covered by thioflavin S-positive inclusions was determined. […] Spurious, non-cell associated fluorescence was manually removed. Unless indicated otherwise, data represent group means ±SEM. Statistical analyses were performed with GraphPad Prism (GraphPad Inc). Differences between means (two samples) were assessed by the […]. Differences among multiple means were assessed by one-factor ANOVA followed by Tukey's multiple comparison test.

[2] = test system: A53T α-synuclein-expressing BE-M17 cells; experiment: XTT Cytotoxicity assay - protection against rotenone-induced cytotoxicity; type: cell-based
Excerpt: as §1, §2
Research has shown that the accumulation of α-synuclein fibrils in Lewy bodies contributes mechanistically to the degradation of neurons in Parkinson's disease and related disorders (Polymeropoulos et al., Science 276:2045-2047, 1997; Kruger et al., Nature Genet. 18:106-108, 1998). Here, the XTT Cytotoxicity assay (hereafter referred to as the XTT assay) was used to measure the ability of test compounds to protect against rotenone-induced cytotoxicity (neuroprotective ability). The assay is based on the principle that conversion of the yellow tetrazolium salt XTT to form an orange formazan dye (that absorbs light around 490 nm) occurs only in metabolically active, viable cells. Therefore, light absorbance at 490 nm is proportional to cell viability. For this assay, cells were plated in 96 well tissue culture dishes at 10^4 cells per well. After 24 hours, cells were treated with 500 nM or 2 μM rotenone, or vehicle (0.05% DMSO) as indicated. Immediately after rotenone addition, compounds were added at the indicated concentration. […] Untreated cells received cell culture media only (no compound, with or without rotenone). After 40-44 hours of treatment, conditioned media was removed and replaced with 100 μl fresh media and 50 μl XTT labeling reaction mixture according to the manufacturer's recommendations. Four to five hours later, the absorbance at 490 nm was measured and corrected for absorbance at the 700 nm reference wavelength. […] Percent inhibition of cell death was calculated as the proportion of the rotenone-induced absorbance (viability) decrease that was eliminated by test compound treatment.

Wild-type α-synuclein = target: T1, Wild-type α-synuclein (Homo sapiens, UniProt P37840); experiment: Circular dichroism spectroscopy - conversion of α-synuclein to β-sheet-rich structure; type: biochemical; conditions: for inhibition of conversion of α-synuclein to a β-sheet-rich structure (in words): 48 hours, 1 mg/ml compound (FIG. 13D)
T1 construct: purchased rPeptide (Athens, Ga., USA)
Protocol: For this purpose, α-synuclein was obtained from rPeptide (Athens, Ga., USA) as a lyophilized salt in 1 mg aliquots. Buffer components and other solvents were obtained from Sigma as A.C.S. Reagent grade or higher. Wild-type α-synuclein was dissolved in a buffer containing 9.5 mM phosphate and 139.7 mM potassium chloride, adjusted to pH 7.4. […] Aliquots of the solutions were taken at the appropriate time point for CD spectral analysis. CD spectra were acquired on a Jasco J-810 spectropolarimeter using a 0.1 cm path length cell. All spectra were recorded with a step size of 0.1 nm, a bandwidth of 1 nm, and an α-synuclein concentration of 0.1 mg/ml. The spectra were trimmed at the shortest wavelength which still provided a dynode voltage less than […]. The trimmed spectra were then subjected to a data processing routine beginning with noise reduction by Fourier transform followed by subtraction of a blank spectrum (compound or vehicle only without α-synuclein). These blank corrected spectra were then zeroed at 260 nm and the units converted from millidegrees to specific ellipticity. Percent β-sheet was determined from processed spectra by subtracting the ellipticity minimum value at approximately 218 nm from the maximum value observed at approximately 197 nm and referencing to a scale normalized to nearly fully folded and unfolded reference values, consistent with previous reports (Ramirez-Alvarado et al., J. Mol. […] Andersen et al., J. Am. Chem. […] These percent β-sheet values were then used to provide the respective relative % inhibition induced by the compounds.

[3] = 1 μM rotenone, 1 μg/ml compound
[4] = 5 μM rotenone, 1 μg/ml compound
[5] = 50 μg/ml compound, at both rotenone doses (500 nM or 2 μM)
[6] = 5 μg/ml compound, rotenone 500 nM or 2 μM

`Oc1ccc(Cc2ccc(O)c(O)c2)cc1O` [Compound 3, 3,4,3′,4′-tetrahydroxydiphenylmethane] was tested, and the “reduction of rotenone-induced thioflavin S-positive aggregates” value (“reduction” below) [1, 3] was 90% and the “reduction” value ([1]; 1 μM rotenone, 5 μg/ml compound) was 90%.
In the case of `O=C(NCc1ccc(O)c(O)c1)C(=Cc1ccc(O)c(O)c1)NC(=O)c1ccc(O)c(O)c1` [Compound 21, α-(3,4-dihydroxybenzamido)-3,4-dihydroxycinnamic acid 3,4-dihydroxybenzyl amide], the “reduction” value [1, 4] is reported as 84% and the “inhibition of rotenone-induced loss of viability” value [2, 5] is reported as 30-40%.
`O=C(c1ccc(O)c(O)c1)N1CCN(C(=O)c2ccc(O)c(O)c2)CC1` [Compound 23, 1,4-bis(3,4-dihydroxybenzoyl)piperazine] was tested, and the “inhibition of conversion of α-synuclein to a β-sheet-rich structure (in words)” value (“inhibition of conversion of α-synuclein” for short) (Wild-type α-synuclein) was “modest inhibitory effects”.
In the case of `O=C(Nc1ccc(O)c(O)c1)c1ccc(O)c(O)c1` [Compound 51, 3,4-dihydroxybenzoic acid 3,4-dihydroxyanilide], the “conversion of natively unfolded α-synuclein to a β-sheet-rich structure (in words)” value (Wild-type α-synuclein; 1 mg/ml α-synuclein, 1 mg/ml compound, 24 hours, 37°) is reported as “prevents the conversion of natively unfolded α-synuclein to a β-sheet-rich structure”, the “dose sufficient to completely eliminate the conversion of α-synuclein to a β-sheet-rich structure” value (Wild-type α-synuclein; 1.0 mg/ml α-synuclein, 24 hours incubation at 37° C.) is reported as 0.25 mg/mL and the IC50 (Wild-type α-synuclein; 1.0 mg/ml α-synuclein, 24 hours incubation at 37° C., read-out: dose sufficient to inhibit the conversion of α-synuclein to a β-sheet-rich structure by approximately 50% (converted)) is reported as 574 µM. The “inhibition of conversion of α-synuclein” value (Wild-type α-synuclein) was “completed inhibited conversion”, the “β-sheet-rich structure of α-synuclein” value (Wild-type α-synuclein; compound added 24 hours after the beginning (t=24 hr), up to 144 hours at 37° C.) was at most 45% and the “β-sheet-rich structure of α-synuclein” value (Wild-type α-synuclein; compound added at the beginning (t=0 hr), sampled up to 144 hours) was “approximately 10%”. The “reduction” value ([1]; 1 μM rotenone, 500 ng/ml compound) was 87%, the “reduction” value [1, 3] was 91% and the “optimal therapeutic dose in XTT assay” value ([2]; 500 nM rotenone) was about 25 µg/mL. The “inhibition of rotenone-induced loss of viability” value [2, 5] was 25-30%, the inhibition at 10 µg/mL ([2]; Homo sapiens, 10 μg/ml compound, 500 nM rotenone, read-out: inhibition of rotenone-induced toxicity) was 45% and the inhibition at 25 µg/mL ([2]; Homo sapiens, 25 μg/ml compound, 500 nM rotenone, read-out: inhibition of rotenone-induced toxicity) was 55%.
For `O=C(Nc1ccc(O)c(O)c1)C(=O)Nc1ccc(O)c(O)c1` [Compound 63, oxalic acid bis(3,4-dihydroxyanilide)], the “inhibition of conversion of α-synuclein” value (Wild-type α-synuclein) was “modest inhibitory effects”, the “inhibition of rotenone-induced loss of viability” value [2, 6] was 10-13% and the inhibition at 50 µg/mL ([2]; Homo sapiens, 50 μg/ml compound, 500 nM rotenone, read-out: inhibition of rotenone-induced toxicity) was about 55%. The inhibition at 50 µg/mL ([2]; Homo sapiens, 50 μg/ml compound, 2 μM rotenone, read-out: inhibition of rotenone-induced toxicity) was about 35%.
`O=C(Nc1ccc(O)c(O)c1)Nc1ccc(O)c(O)c1` [Compound 76, 1,3-bis(3,4-dihydroxyphenyl)urea] was tested, and the “inhibition of conversion of α-synuclein” value (Wild-type α-synuclein) was “completed inhibited conversion”, the “reduction” value ([1]; 5 μM rotenone, 500 ng/ml compound) was 73% and the “reduction” value [1, 4] was 80%. The “reduction” value ([1]; 5 μM rotenone, 5 μg/ml compound) was 91% and the “inhibition of rotenone-induced loss of viability” value [2, 6] was “approximately 18%”.

Source: patent publication US20070276034A1, “Compounds, compositions and methods for the treatment of synucleinopathies” (priority 2002, published 2007)
